Measured values: patent publication US20020137929A1, “1 - (3-heterocyclylphenyl) isothiourea, -isourea, -guanidine and -amidine herbicidal agents” (Intellectual Property Department, BASF Aktiengesellschaft, priority 1998, published 2002)

Columns and labels:
[1] = tested on: ABUTH (Velvetleaf); assay: Postemergence herbicidal evaluation; assay type: in vivo, Abutilon theophrasti; settings: postemergence
In short: (§1)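 Two-week-old seedlings sprayed with compound in 50/50 acetone/water plus 0.5% TWEEN 20, at about 0.0156 to 0.500 kg/ha, nozzle at 40 psi. Kept in greenhouse; rated visually 4-5 weeks after treatment on a 0-9 scale versus control, repeat tests averaged.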

[2] = tested on: GALAP (Galium); assay: Postemergence herbicidal evaluation; assay type: in vivo, Galium aparine; settings: postemergence
In short: as §1

[3] = tested on: MOOVA (Monochoria); assay: Postemergence weed control under flooded paddy conditions; assay type: in vivo, Monochoria vaginalis; settings: postemergence weeds, rated 3 to 4 weeks after treatment
In short: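 Weeds 3 to 5 cm tall and rice seedlings at the 1.5 to 2.5 leaf stage were flooded, with water held 1.5 to 3 cm above the soil. Compounds in 50/50 v/v aqueous/acetone went into the flood water at about 0.0313 to 0.500 kg/ha. Visual 0-9 ratings versus control were made 3 to 4 weeks later.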

[4] = tested on: GALAP (Galium); assay: Preemergence herbicidal evaluation; assay type: in vivo, Galium aparine; settings: rated 4-5 weeks after treatment; for GALAP rating: preemergence, 0-9 scale
In short: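 Greenhouse preemergence test: seed-soil mix sown on ~1 inch soil; aqueous acetone spray at equivalent of ~0.0156–0.500 kg/ha; greenhouse-held and watered; scored 0–9 visually at 4–5 weeks.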

[5] = tested on: ORYSAT (Rice, Tebonnet); assay: Rice tolerance to post-transplant applications, flooded paddy conditions (Table III); assay type: in vivo, Oryza sativa, (L.) Tebonnet; settings: in vivo
Procedure: Results of herbicide evaluation are expressed on a rating scale (0-9). The scale is based upon a visual observation of plant stand, vigor, malformation, size, chlorosis and overall plant appearance as compared with a control.
The tolerance of transplanted rice to post-transplanted herbicide applications is determined as follows: two ten-day-old rice seedlings (cv. Tebonnet) are transplanted into silt loam soil in 32 oz. plastic containers with a diameter of 10.5 cm and no drainage holes. After transplanting, the containers are flooded and the water level is maintained at 1.5 to 3 cm above the soil surface. Three days after transplanting, the flooded soil surface of the containers is treated with the selected aqueous/acetone 50/50 v/v mixture containing the test compounds to provide the equivalent of about 0.0313 to 0.500 kg/ha of active ingredient. The treated containers are placed on greenhouse benches, watered such that the water level is maintained as stated above, and cared for in accordance with conventional greenhouse procedures. Three to four weeks after treatment, the test is terminated and each container is examined and herbicidal effect rated according to the rating system provided in Example 37. The compounds evaluated are reported by compound number given in Example 37.
Plant species employed in this example are reported by header abbreviation, common name and scientific name.

[6] = rate 0.1250 kg/ha, rating scale 0-9
[7] = rate 0.2500 kg/ha, rating scale 0-9
[8] = rate 0.0313 kg/ha, rating scale 0-9
[9] = rate 0.0625 kg/ha, rating scale 0-9

SMILES | herbicidal rating ABUTH ([1]; rate 0.0156 kg/ha) | herbicidal rating ABUTH ([1]; rate 0.0313 kg/ha) | herbicidal rating GALAP ([2]; rate 0.0156 kg/ha) | herbicidal rating GALAP ([2]; rate 0.0313 kg/ha) | Herbicidal rating MOOVA ([3]; Rate 0.0313 kg/ha) | Herbicidal rating MOOVA ([3]; Rate 0.0625 kg/ha) | Herbicidal rating MOOVA ([3]; Rate 0.1250 kg/ha) | Herbicidal rating MOOVA ([3]; Rate 0.2500 kg/ha) | GALAP rating ([4]; 0.0313 kg/ha) | GALAP rating ([4]; 0.0625 kg/ha) | GALAP rating ([4]; 0.2500 kg/ha) | GALAP rating ([4]; 0.5000 kg/ha) | herbicidal rating ABUTH ([1]; rate 0.0625 kg/ha) | herbicidal rating ABUTH ([1]; rate 0.1250 kg/ha) | herbicidal rating GALAP ([2]; rate 0.0625 kg/ha) | herbicidal rating GALAP ([2]; rate 0.1250 kg/ha) | herbicidal effect rating, ORYSAT (rice tolerance) [5] | Preemergence herbicidal rating GALAP [4, 6] | Preemergence herbicidal rating GALAP [4, 7] | other results
C=CCN1C(=O)C(CC(N)=O)SC1=Nc1cc(-n2c(=O)cc(C(F)(F)F)n(C)c2=O)c(F)cc1Cl (stereo not drawn) [Compound 99, 3-Allyl-2-{{2-chloro-5-[3,6-dihydro-3-methyl-2,6-dioxo-4-(trifluoromethyl)-1(2H)-pyrimidinyl]-4-fluorophenyl}imino}-4-oxo-5-thiazolidineacetamide] | 9.0 | 9.0 | 3.0 | 6.0 | 9.0 | 9.0 | 9.0 | 9.0 | 0.0 | 1.0 | 9.0 | 7.0 | – | – | – | – | – | – | – | ABUTH herbicidal rating ([1]; rate 0.0625 kg/ha): 9.0; ABUTH herbicidal rating ([1]; rate 0.1250 kg/ha): 9.0; GALAP herbicidal rating ([2]; rate 0.0625 kg/ha): 7.0; GALAP herbicidal rating ([2]; rate 0.1250 kg/ha): 9.0; Herbicidal rating MOOVA ([3]; Rate 0.5000 kg/ha): 9.0; GALAP rating ([4]; 0.0156 kg/ha): 0.0; GALAP rating ([4]; 0.1250 kg/ha): 7.0
CCOC(=O)CN1C(=O)C(CC(=O)NS(=O)(=O)c2ccccc2)SC1=Nc1cc(-n2c(=O)cc(C(F)(F)F)n(C)c2=O)c(F)cc1Cl (stereo not drawn) [Compound 100, Ethyl 2-{{2-chloro-5-[3,6-dihydro-3-methyl-2,6-dioxo-4-(trifluoromethyl)-1(2H)-pyrimidinyl]-4-fluorophenyl}imino}-4-oxo-5-{[(phenylsulfonyl)-carbamoyl]methyl]-3-thiazolidineacetate] | 9.0 | 9.0 | 1.0 | 2.0 | 9.0 | 9.0 | 9.0 | 9.0 | 0.0 | 1.0 | 6.0 | 6.0 | 9.0 | 9.0 | 3.0 | 3.0 | – | – | – | Herbicidal rating MOOVA ([3]; Rate 0.5000 kg/ha): 9.0
CCOC(=O)CN1C(=O)C(CC(=O)NS(=O)(=O)CC)SC1=Nc1cc(-n2c(=O)cc(C(F)(F)F)n(C)c2=O)c(F)cc1Cl (stereo not drawn) [Compound 103, Ethyl 2-{{2-chloro-5-[3,6-dihydro-3-methyl-2,6-dioxo-4-(trifluoromethyl)-1(2H)-pyrimidinyl]-4-fluorophenyl}imino}-5-{[(ethylsulfonyl)carbamoyl]-methyl}-4-oxo-3-thiazolidineacetate] | 9.0 | 9.0 | 0.0 | 3.0 | 5.0 | 7.0 | 9.0 | 9.0 | 0.0 | 0.0 | 0.0 | 7.0 | 9.0 | 9.0 | 5.0 | 7.0 | – | – | – | GALAP rating ([4]; 0.1250 kg/ha): 0.0
CCS(=O)(=O)NC(=O)CC1SC(=Nc2cc(-n3c(=O)cc(C(F)(F)F)n(C)c3=O)c(F)cc2Cl)N(C)C1=O (stereo not drawn) [Compound 105, 2-{{2-Chloro-5-[3,6-dihydro-3-methyl-2,6-dioxo-4-(trifluoromethyl)-1(2H)-pyrimidinyl]-4-fluorophenyl}imino}-N-(ethylsulfonyl)-3-methyl-4-oxo-5-thiazolidineacetamide] | 4.0 | 4.0 | 0.0 | 0.0 | 6.0 | 7.0 | 7.0 | 9.0 | – | – | 3.0 | 7.0 | 4.0 | 9.0 | 1.0 | 2.0 | – | – | – | –
Cn1c(C(F)(F)F)cc(=O)n(-c2cc(N=C3SCC(=O)N3CC(=O)OCC#N)c(Cl)cc2F)c1=O [Compound 109, 2-{{2-Chloro-5-[3,6-dihydro-3-methyl-2,6-dioxo-4-(trifluoromethyl)-1(2H)-pyrimidinyl]-4-fluorophenyl}imino}-4-oxo-3-thiazolidineacetic acid, ester with glycolonitrile] | – | – | – | – | 2.0 | 4.0 | 9.0 | 9.0 | – | – | – | – | – | – | – | – | – | – | – | herbicidal rating ABUTH ([1]; rate 0.0158 kg/ha): 9.0; herbicidal rating ABUTH ([1]; rate 0.0315 kg/ha): 9.0; herbicidal rating ABUTH ([1]; rate 0.0630 kg/ha): 9.0; herbicidal rating GALAP ([2]; rate 0.0158 kg/ha): 1.0; herbicidal rating GALAP ([2]; rate 0.0315 kg/ha): 3.0; herbicidal rating GALAP ([2]; rate 0.0630 kg/ha): 5.0; Preemergence herbicidal rating GALAP ([4]; rate 0.0156 kg/ha): 3.0; Preemergence herbicidal rating GALAP ([4]; rate 0.0313 kg/ha): 3.0; Preemergence herbicidal rating GALAP ([4]; rate 0.0625 kg/ha): 3.0; Preemergence herbicidal rating GALAP ([4]; rate 0.1250 kg/ha): 4.0; Preemergence herbicidal rating GALAP ([4]; rate 0.2500 kg/ha): 4.0
COc1ccc(CN2C(=O)CSC2=Nc2cc(-n3c(=O)cc(C(F)(F)F)n(C)c3=O)c(F)cc2Cl)cc1OC [Compound 134, 3-{4-Chloro-5-{[3-(3,4-dimethoxybenzyl)-4-oxo-2-thiazolidinylidene]amino}-2-fluorophenyl}-1-methyl-6-(trifluoromethyl)-2,4(1H,3H)-pyrimidinedione] | 5.0 | 7.0 | 0.0 | 1.0 | – | – | – | – | – | – | – | – | 9.0 | – | 2.0 | – | 2.0 | 1.0 | 0.0 | –
Cn1c(C(F)(F)F)cc(=O)n(-c2cc(N=C3SCC(=O)N3Cc3ccc(S(N)(=O)=O)cc3)c(Cl)cc2F)c1=O [Compound 135, Alpha-{2-{{2-chloro-5-[3,6-dihydro-3-methyl-2,6-dioxo-4-(trifluoromethyl)-1(2H)-pyrimidinyl]-4-fluorophenyl}imino}-4-oxo-3-thiazolidinyl}-p-toluenesulfonamide] | 4.0 | 9.0 | 1.0 | 3.0 | – | – | – | – | – | – | – | – | 9.0 | – | 4.0 | – | 0.0 | 0.0 | 1.0 | Preemergence herbicidal rating GALAP ([4]; rate 0.0156 kg/ha, rating scale 0-9): 0.0; Preemergence herbicidal rating GALAP [4, 8]: 0.0; Preemergence herbicidal rating GALAP [4, 9]: 0.0
Cn1c(C(F)(F)F)cc(=O)n(-c2cc(N=C3SCC(=O)N3Cc3ccc(Br)cc3)c(Cl)cc2F)c1=O [Compound 148, 3-{5-{[3-(p-Bromobenzyl)-4-oxo-2-thiazolidinyl-idene]amino}-4-chloro-2-fluorophenyl}-1-methyl-6-(trifluoromethyl)-2,4(1H,3H)-pyrimidinedione] | 9.0 | 9.0 | 2.0 | 2.0 | – | – | – | – | – | – | – | – | 9.0 | – | 2.0 | – | 0.0 | 0.0 | 0.0 | Preemergence herbicidal rating GALAP [4, 8]: 0.0; Preemergence herbicidal rating GALAP [4, 9]: 0.0
